In PMC6747051, “Screening of Antiviral Components of Ma Huang Tang and Investigation on the Ephedra Alkaloids Efficacy on Influenza Virus Type A” (Frontiers in Pharmacology, 2019):
In brackets after ≈: the same amount, converted by molar mass. Entries after “also recorded” stand apart in the source; their conditions may differ.

Tests used:
influenza A virus [1] = assay: microbe, parasite or virus in culture; settings: MDCK, 48 h, read-out: Cell survival rate
[2] = system: IL-6, IFN-β and TNF-α levels; assay type: cell-based, canine
[3] = system: IL-1β, IL-6 and IL-10 in serum; assay type: in vivo, ICR mice; settings: 3rd and 7th day after infection; for IL-10 in serum: P < 0.01; for IL-1β in serum: P < 0.01 or P < 0.05; for IL-6 in serum: P > 0.05
Procedure: (§1) A total of 108 ICR mice were randomly divided into the control uninfected group, the control infected group, oseltamivir group, LEP-treated groups and DPEP-treated groups; 12 mice were designed in each group. Except for the mice in the control uninfected group, others were anaesthetized with ethyl ether and intranasally infected with 10LD50 influenza A virus (A PR/8/34) in a volume of 50 μl PBS to induce viral pneumonia. […] Meanwhile, the control uninfected group and the control infected group were only given saline with the same volume. […] The adult daily dose was converted into the high dose of mice, which was about 40 mg/kg. Based on the high dose of the drug, the medium and low doses were set.
In days 3 and 7 post-infection, blood samples of six mice from each group were collected from retroorbital sinus under mild ethyl ether anesthesia before they were sacrificed, then under 4 °C they were centrifuged at 3000 rpm for 20 min to obtain serum. The levels of IL-1β, IL-6 and IL-10 in murine serum were determined by ELISA kits.

[4] = system: influenza A virus (A PR/8/34); assay: HE assay of lung tissue of infected mice; assay type: in vivo, ICR mice; settings: days 3 and 7 post-infection, 40, 20, 10 mg/kg
Procedure: as §1
In the 3rd and 7th days after infection, the right lung lobes from each mouse were washed with normal saline and immediately soaked in 10% normal buffered formalin for one week. Then the samples were dehydrated with ethanol and embedded in paraffin. The 4-μm-thick lung sections were stained with HE and the pathological changes of lung tissue were observed under the light microscope.

influenza A virus [5] = assay: Viral load assay using real-time RT-PCR (M1 gene) and CPE in infected MDCK cells; assay type: cell-based, influenza virus A/PR8/34 (H1N1); settings: 24 and 48 h after administration; for viral load in MDCK cells vs control infected group: each dose group, P < 0.01 or P < 0.05
[6] = system: TNF-α, IFN-γ, TLR3, TLR4, TLR7, MyD88, NF-κB p65 and RIG-1 mRNA; parameters: species or system ICR mice; settings: mouse, in vivo
[7] = system: TLR4, TLR7, MyD88 and NF-κB p65 protein expression; parameters: species or system ICR mice; settings: mouse, in vivo
[8] = system: influenza A virus (A PR/8/34); assay: RT-PCR analysis of viral load in murine lung tissue; assay type: in vivo, ICR mice
Procedure: as §1
In the 3rd and 7th days after infection, the left lung lobes from each mouse were washed with normal saline and stored at -80°C for RT-PCR and western blot analysis use. For RT-PCR analysis, the left lung was homogenized in precooled normal saline and centrifuged at 4000 rpm for 10 min at 4 °C. Total RNA was extracted using the High Pure Viral Nucleic Acid kit and cDNA was synthesized with the PrimeScript™ RT Master Mix kit. The specific steps of RT-PCR amplification were the same as the previous section in the present study. The related primers for mouse were designed by Sangon Biotech, Co., Ltd. (Shanghai, China) and are described in Table S2 .

influenza A virus [9] = settings: dog
influenza A virus [10] = assay: Antiviral activity assay in vitro with four ways of drug delivery (MTT, MDCK cells); assay type: cell-based, influenza virus A/PR8/34 (H1N1); settings: for EC50: Influenza A virus, MDCK; for antiviral effective rate (ER): final concentration 3.91 μg/ml
[11] = system: TLRs signaling pathway mRNA; assay type: cell-based, canine
[12] = 3rd day after infection, three doses, P < 0.01 or P < 0.05
[13] = 7th day after infection, 40 and 20 mg/kg groups, P < 0.05
[14] = drug delivery way: Blocking viruses invading host cells
[15] = drug delivery way: Directly inhibiting virus
[16] = drug delivery way: Inhibiting the biosynthesis of virus
[17] = drug delivery way: Intervening the adsorption of virus

| Structure (SMILES) | viability at 0.49 µg/mL (influenza A virus [1]) [%] | viability at 0.98 µg/mL (influenza A virus [1]) [%] | viability at 1.95 µg/mL (influenza A virus [1]) [%] | viability at 3.91 µg/mL (influenza A virus [1]) [%] | viability at 7.81 µg/mL (influenza A virus [1]) [%] | IL-6 level in cell supernatant vs control infected group [2] | level of IFN-β in cell supernatant vs control infected group [2] | secretion of TNF-α vs control infected group [2] | IL-10 in serum [3] | IL-1β in serum [3] | IL-6 in serum [3] | histopathological responses of lung tissue [4] | CPE of infected MDCK cells (influenza A virus [5]) | viral load in MDCK cells vs control infected group (influenza A virus [5]) | mRNA expression levels of TLR3, TLR4, TLR7, MyD88, NF-κB p65 and RIG-1 in lung tissue [6] | mRNA expression of IFN-γ in lung tissue [6] | mRNA expression of TNF-α in lung tissue [6] | inhibition effect on protein expression of TLR4 and TLR7 in lung tissue [7] | protein expression levels of MyD88 and NF-κB p65 in lung tissue [7] | protein expression levels of TLR4 and TLR7 in lung tissue [7] | further results |
| --- | --- | --- | --- | --- | --- | --- | --- | --- | --- | --- | --- | --- | --- | --- | --- | --- | --- | --- | --- | --- | --- |
| CN[C@@H](C)[C@H](O)c1ccccc1 [LEP, L-ephedrine] | 42.6 | 51.6 | 57.8 | 61.5 | 67.2 | significantly higher than that in the control infected group | significantly increase; also recorded: increased | significantly inhibited the secretion of TNF-α | accelerated the production of IL-10 | dramatically inhibited the production of IL-1β | slightly increased | attenuated the inflammation | significantly reduce the CPE | significantly decreased | obviously inhibited | significantly promoted | markedly inhibited | not obvious | significantly down-regulated | Decreased | protein expression of TLR4, TLR7 and NF-κB p65 in comparison to oseltamivir [7]: dramatically inhibit; viral load in lung tissue vs control infected group [8, 12]: significantly decreased; viral load in lung tissue vs control infected group [8, 13]: significantly reduced; cell viability rate (influenza A virus [9]): ≥ 70%; EC50 (influenza A virus [10]; [14]): 11 mg/L (≈ 66.3 µM); EC50 (influenza A virus [10]; [15]): 6.28 mg/L (≈ 38 µM); EC50 (influenza A virus [10]; [16]): 5.66 mg/L (≈ 34.3 µM); EC50 (influenza A virus [10]; [17]): 7.15 mg/L (≈ 43.3 µM); antiviral effective rate (ER) (influenza A virus [10]): > 36.00%; mRNA expression levels of TLR4 and TRAF3 [11]: inhibited; mRNA expression levels of TLR7, NF-κB p65, TLR3 and IRF3 [11]: significantly reduced; mRNA expression of IFN-β [11]: significantly increased; mRNA expression of MyD88 and TRAF6 [11]: marked decreased; mRNA expression of TLR4 and MyD88 [11]: significantly inhibited; mRNA expression of TRAF6 and TRAF3 [11]: decreased |
| CN[C@@H](C)[C@@H](O)c1ccccc1 [DPEP, D-pseudoephedrine] | 45.3 | 54.7 | 61.2 | 63.9 | 72.5 | significantly higher than that in the control infected group | significantly increase; also recorded: increased | significantly inhibited the secretion of TNF-α | accelerated the production of IL-10 | dramatically inhibited the production of IL-1β | slightly increased | attenuated the inflammation | significantly reduce the CPE | significantly decreased | obviously inhibited | significantly promoted | markedly inhibited | not obvious | significantly down-regulated | Decreased | protein expression of TLR4, TLR7 and NF-κB p65 in comparison to oseltamivir [7]: dramatically inhibit; viral load in lung tissue vs control infected group [8, 12]: significantly decreased; viral load in lung tissue vs control infected group [8, 13]: significantly reduced; cell viability rate (influenza A virus [9]): ≥ 70%; EC50 (influenza A virus [10]; [14]): 8.17 mg/L (≈ 49.4 µM); EC50 (influenza A virus [10]; [15]): 6.04 mg/L (≈ 36.6 µM); EC50 (influenza A virus [10]; [16]): 4.67 mg/L (≈ 28.3 µM); EC50 (influenza A virus [10]; [17]): 7.57 mg/L (≈ 45.8 µM); antiviral effective rate (ER) (influenza A virus [10]): more than 38.00%; IFN-β mRNA expression compared with the oseltamivir group [11]: significantly increased; mRNA expression levels of MyD88, TRAF6 and TRAF3 [11]: obvious decreased; mRNA expression levels of NF-κB p65, TRAF3 and IRF3 compared with the oseltamivir group [11]: significantly reduced; mRNA expression levels of TLR7, NF-κB p65, TLR3 and IRF3 [11]: significantly reduced; mRNA expression levels of TRAF6 and TLR4 [11]: reduced; mRNA expression of IFN-β [11]: significantly increased; mRNA expression of MyD88 and TRAF3 [11]: significant decreased; mRNA expression of TLR4 [11]: significant decreased |
